Data published in patent publication US12473283B2, “Compounds and their use” (Debiopharm International S.A., priority 2019, dated 2025).
pIC50: −log10 of the molar value. Converted amounts (≈) assume the structure as drawn. Where two headings read alike, the source gives them in different places.

How the values were obtained:
[1] = target: FabI enzyme from Escherichia coli (Escherichia coli, UniProt P0AEK4); experiment: Inhibition of FabI enzyme, rate of NADH consumption; type: biochemical
Description: (§1) Inhibition of FabI enzyme from Acinetobacter baumannii and Escherichia coli was tested by measuring the rate of NADH consumption (Δabsorbance at 340 nm/min) at 30° C. in 96-well plate format using an automated plate reader in the presence or absence of the test compounds. The assay mixture contained 100 mM Tris-HCl, pH 7.25 (A. baumannii) or 7.5 (E. coli), 100 mM ammonium acetate, 0.02% (A. baumannii) or 0.05% (E. coli) Pluronic F-68, 25 μM crotonyl ACP, 50 μM NADH, 25 pM (A. baumannii) or 50 pM (E. coli) recombinant FabI protein, and 7.5% DMSO. Test compounds were added at concentrations ranging from 0.17 to 10,000 nM in a final well volume of 100 μl. This dose-response inhibitory assay was performed using a 10-point, serial dilution series for each test compound. IC50 values for each test compound were assigned from logistical sigmoid curve-fitting of the inhibition dose response curves.

S. aureus ATCC 29213 = experiment: Broth microdilution MIC assay; type: cell-based; conditions: Staphylococcus aureus, ATCC29213; CA-MHB, 35° C., 20 hours
Description: (§2) The antibacterial activity of FabI inhibitors against select Gram-negative and Gram-positive bacterial species including susceptible and multi-drug resistant A. baumannii, E. coli, K. pneumoniae and S. aureus was tested using the broth microdilution Minimal Inhibitory Concentration (MIC) assay following CLSI guidelines for insoluble compounds. Test articles were serially diluted 2-fold in 100% dimethyl sulfoxide (DMSO) and then diluted 100-fold into cation adjusted Mueller-Hinton broth (CA-MHB) to achieve a 10-point test concentration range in 1% DMSO. Final compound concentrations were 0.016-8 μg/ml for S. aureus or 0.06-32 μg/ml for the Gram-negative species. MIC test plates were then prepared by transferring 100 μl of the final assay medium (test article in CA-MHB, 1% DMSO) into the appropriate wells of a sterile, low binding 96-well polystyrene plate. Direct colony suspension inoculums of the test strains were freshly prepared per CLSI guidelines, and the appropriate test wells were inoculated to achieve a final bacterial cell density of 5×10^5 CFU/ml. Growth control (no test article) and negative control (no bacterial inoculum) wells were also included. Exposure to light was minimized during all stages of assay preparation. […] Bacterial growth was then determined by measuring the optical density at 600 nm (OD600) using a SpectraMax Plus plate-reader spectrophotometer.

[2] = test system: A. baumannii ATCC BAA1605; experiment: Broth microdilution MIC assay; type: cell-based; conditions: Acinetobacter baumannii, ATCCBAA1605; CA-MHB, 35° C., 20 hours
Description: as §2

E. coli AG100 = experiment: Broth microdilution MIC assay; type: cell-based; conditions: Escherichia coli, CA-MHB, 35° C., 20 hours
Description: as §2

[3] = target: FabI enzyme from Acinetobacter baumannii (Acinetobacter baumannii, UniProt D0CAD5); experiment: Inhibition of FabI enzyme, rate of NADH consumption; type: biochemical
Description: as §1

K. pneumoniae A6030827 = experiment: Broth microdilution MIC assay; type: cell-based; conditions: Klebsiella pneumoniae, CA-MHB, 35° C., 20 hours
Description: as §2

[4] = recombinant FabI, 30° C., pH 7.5, read-out: E. coli Fabl IC50
[5] = recombinant FabI, 30° C., pH 7.25, read-out: A. baumannii Fabl IC50

FabI enzyme from Escherichia coli, sequence (P0AEK4 whole entry): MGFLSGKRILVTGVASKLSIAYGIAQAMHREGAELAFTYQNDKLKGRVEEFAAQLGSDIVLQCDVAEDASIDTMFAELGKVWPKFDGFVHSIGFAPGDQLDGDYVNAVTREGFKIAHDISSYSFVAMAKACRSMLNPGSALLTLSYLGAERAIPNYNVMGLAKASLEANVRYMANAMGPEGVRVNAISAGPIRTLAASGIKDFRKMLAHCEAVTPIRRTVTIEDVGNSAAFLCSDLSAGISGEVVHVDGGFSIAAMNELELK
FabI enzyme from Acinetobacter baumannii, sequence (D0CAD5 entry or part of it): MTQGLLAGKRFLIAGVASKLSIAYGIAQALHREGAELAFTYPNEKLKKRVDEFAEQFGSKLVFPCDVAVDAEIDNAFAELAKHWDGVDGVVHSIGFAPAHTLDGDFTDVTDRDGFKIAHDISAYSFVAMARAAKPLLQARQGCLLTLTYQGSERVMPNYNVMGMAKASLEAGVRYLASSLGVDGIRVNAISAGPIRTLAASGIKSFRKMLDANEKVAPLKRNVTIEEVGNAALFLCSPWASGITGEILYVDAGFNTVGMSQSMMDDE

SMILES | pIC50 [1, 4] | MIC (S. aureus ATCC 29213) | MIC [2] | MIC (E. coli AG100) | pIC50 [3, 5] | MIC (K. pneumoniae A6030827) | pIC50 [3] | pIC50 [1]
Cc1oc2c(N)cccc2c1CN(C)C(=O)/C=C/c1cnc2c(c1)CC[C@H](N)C(=O)N2 (single isomer, unassigned) [Compound 193] | > 8.00 | ≤ 4 µg/mL | ≤ 4 µg/mL | ≤ 4 µg/mL | – | – | – | –
Cc1c(CN(C)C(=O)/C=C/c2cnc3c(c2)CC[C@H](N2CC(O)C2)C(=O)N3)oc2ccccc12 (single isomer, unassigned) [Compound 171] | – | ≤ 4 µg/mL | ≤ 4 µg/mL | ≤ 4 µg/mL | > 8.00 | ≤ 4 µg/mL | – | –
Cc1c(CN(C)C(=O)/C=C/c2cnc3c(c2)CCC(N2CCCC2)C(=O)N3)oc2ccccc12 (stereo not drawn) [Compound 182, (E)-N-methyl-N-((3-methylbenzofuran-2-yl)methyl)-3-(8-oxo-7-(pyrrolidin-1-yl)-6,7,8,9-tetrahydro-5H-pyrido[2,3-b]azepin-3-yl)acrylamide] | > 8.00 | ≤ 4 µg/mL | ≤ 4 µg/mL | ≤ 4 µg/mL | > 8.00 | ≤ 4 µg/mL | – | –
Cc1c(CN(C)C(=O)/C=C/c2cnc3c(c2)NC[C@H](N)C(=O)N3)oc2ccccc12 [Compound 8, (S,E)-3-(3-amino-4-oxo-2,3,4,5-tetrahydro-1H-pyrido[2,3-b][1,4]diazepin-8-yl)-N-methyl-N-((3-methylbenzofuran-2-yl)methyl)acrylamide] | > 8.00 | ≤ 4 µg/mL | ≤ 4 µg/mL | ≤ 4 µg/mL | > 8.00 | ≤ 4 µg/mL | – | –
Cc1oc2ccccc2c1CN(C)C(=O)/C=C/c1cnc2c(c1)NC[C@H](N1CC3(COC3)C1)C(=O)N2 (single isomer, unassigned) [Compound 35] | > 8.00 | ≤ 4 µg/mL | ≤ 4 µg/mL | – | > 8.00 | – | – | –
Cc1c(CN(C)C(=O)/C=C/c2cnc3c(c2)CCC(N(C)C)C(=O)N3)oc2ccccc12 (stereo not drawn) [Compound 95, (E)-3-(7-(dimethylamino)-8-oxo-6,7,8,9-tetrahydro-5H-pyrido[2,3-b]azepin-3-yl)-N-methyl-N-((3-methylbenzofuran-2-yl)methyl)acrylamide] | – | ≤ 4 µg/mL | ≤ 4 µg/mL | ≤ 4 µg/mL | > 8.00 | ≤ 4 µg/mL | – | –
Cc1c(CN(C)C(=O)C=Cc2cnc3c(c2)CCC(N)C(=O)N3)oc2cccc(OC3CCC(N)CC3)c12 (single isomer, unassigned) [Compound 86] | – | ≤ 4 µg/mL | ≤ 4 µg/mL | ≤ 4 µg/mL | > 8.00 | ≤ 4 µg/mL | – | –
Cc1c(CN(C)C(=O)/C=C/c2cnc3c(c2)CC[C@H](N)C(=O)N3)sc2ccccc12.Cl (single isomer, unassigned) [Compound 119, hydrochloride] | – | – | – | – | – | – | > 8.00 | > 8.00
Cc1c(CN(C)C(=O)/C=C/c2cnc3c(c2)CC[C@H](N(C)C)C(=O)N3)oc2ccccc12 (single isomer, unassigned) [Compound 96] | – | ≤ 4 µg/mL | ≤ 4 µg/mL | 8 µg/mL (≈ 18.5 µM) | > 8.00 | ≤ 4 µg/mL | – | –
Cc1c(CN(C)C(=O)/C=C/c2cnc3c(c2)CCC(N2CC4(CCOCC4)C2)C(=O)N3)oc2ccccc12 (stereo not drawn) [Compound 176, (E)-N-methyl-N-((3-methylbenzofuran-2-yl)methyl)-3-(8-oxo-7-(7-oxa-2-azaspiro[3.5]nonan-2-yl)-6,7,8,9-tetrahydro-5H-pyrido[2,3-b]azepin-3-yl)acrylamide] | – | ≤ 4 µg/mL | ≤ 4 µg/mL | ≤ 4 µg/mL | > 8.00 | ≤ 4 µg/mL | – | –
Cc1oc2c(N)cccc2c1CN(C)C(=O)/C=C/c1cnc2c(c1)CCC(N1CCCC1)C(=O)N2 (stereo not drawn) [Compound 191, (E)-N-((7-amino-2-methylbenzofuran-3-yl)methyl)-N-methyl-3-(8-oxo-7-(pyrrolidin-1-yl)-6,7,8,9-tetrahydro-5H-pyrido[2,3-b]azepin-3-yl)acrylamide] | > 8.00 | ≤ 4 µg/mL | ≤ 4 µg/mL | 8 µg/mL (≈ 16.9 µM) | – | – | – | –
Cc1c(CN(C)C(=O)/C=C/c2cnc3c(c2)NC[C@@H](N2C[C@@H](C)O[C@@H](C)C2)C(=O)N3)oc2ccccc12 (single isomer, unassigned) [Compound 21] | > 8.00 | ≤ 4 µg/mL | ≤ 4 µg/mL | – | – | 16 µg/mL (≈ 31.8 µM) | – | –
Cc1c(CN(C)C(=O)/C=C/c2cnc3c(c2)CCC(N2CCS(=O)(=O)CC2)C(=O)N3)oc2ccccc12 (stereo not drawn) [Compound 179, (E)-3-(7-(1,1-dioxidothiomorpholino)-8-oxo-6,7,8,9-tetrahydro-5H-pyrido[2,3-b]azepin-3-yl)-N-methyl-N-((3-methylbenzofuran-2-yl)methyl)acrylamide] | – | ≤ 4 µg/mL | ≤ 4 µg/mL | 8 µg/mL (≈ 15.3 µM) | > 8.00 | 8 µg/mL (≈ 15.3 µM) | – | –
Cc1c(CN(C)C(=O)/C=C/c2cnc3c(c2)CCC(N)C(=O)N3)oc2c(Cl)cccc12.O=C(O)C(F)(F)F (stereo not drawn) [Compound 92, (E)-3-(7-amino-8-oxo-6,7,8,9-tetrahydro-5H-pyrido[2,3-b]azepin-3-yl)-N-((7-chloro-3-methylbenzofuran-2-yl)methyl)-N-methylacrylamide 2,2,2-trifluoroacetate] | – | ≤ 4 µg/mL | 8 µg/mL | ≤ 4 µg/mL | – | ≤ 4 µg/mL | > 8.00 | –
Cc1oc2ccccc2c1CN(C)C(=O)/C=C/c1cnc2c(c1)CCC(N1CCOCC1)C(=O)N2 (stereo not drawn) [Compound 173, (E)-N-methyl-N-((2-methylbenzofuran-3-yl)methyl)-3-(7-morpholino-8-oxo-6,7,8,9-tetrahydro-5H-pyrido[2,3-b]azepin-3-yl)acrylamide] | > 8.00 | ≤ 4 µg/mL | ≤ 4 µg/mL | – | > 8.00 | – | – | –
Cc1oc2ccccc2c1CN(C)C(=O)/C=C/c1cnc2c(c1)CCC(N)C(=O)N2.Cl (stereo not drawn) [Compound 94, (E)-3-(7-amino-8-oxo-6,7,8,9-tetrahydro-5H-pyrido[2,3-b]azepin-3-yl)-N-methyl-N-((2-methylbenzofuran-3-yl)methyl)acrylamide hydrochloride] | – | ≤ 4 µg/mL | ≤ 4 µg/mL | 16 µg/mL | – | ≤ 4 µg/mL | > 8.00 | –
Cc1c(CN(C)C(=O)/C=C/c2cnc3c(c2)CC[C@H](N)C(=O)N3)oc2ccccc12.Cl (single isomer, unassigned) [Compound 71, hydrochloride] | – | – | – | – | – | – | > 8.00 | > 8.00
Cc1c(CN(C)C(=O)/C=C/c2cnc3c(c2)CC[C@H](N2CC4(COC4)C2)C(=O)N3)oc2ccccc12 (single isomer, unassigned) [Compound 190] | > 8.00 | ≤ 4 µg/mL | ≤ 4 µg/mL | ≤ 4 µg/mL | > 8.00 | ≤ 4 µg/mL | – | –
Cc1c(CN(C)C(=O)/C=C/c2cnc3c(c2)CC[C@H](N2CCOCC2)C(=O)N3)oc2c(F)cccc12 (single isomer, unassigned) [Compound 113] | – | ≤ 4 µg/mL | ≤ 4 µg/mL | 8 µg/mL (≈ 16.2 µM) | > 8.00 | ≤ 4 µg/mL | – | –
